Laboratory results reported in patent publication US8431704B2, “Quinoline or isoquinoline substituted P2X7 antagonists” (Janssen Pharmaceutica NV, priority 2008, dated 2013).

What was measured:
hP2X7 = target: T1, hP2X7 (Homo sapiens, UniProt Q99572); assay: P2X7 antagonism: ligand-induced Ca2+ flux in 1321N1 astrocytoma cells overexpressing hP2X7; format: cell-based; details: pIC50 = -log(IC50), read-out: hP2RX7pIC50 (mean pIC50 values) (converted)
T1 construct: expressed in transfected cells; host or cells: 1321N1 astrocytoma cells
T1 sequence (Q99572 1-595): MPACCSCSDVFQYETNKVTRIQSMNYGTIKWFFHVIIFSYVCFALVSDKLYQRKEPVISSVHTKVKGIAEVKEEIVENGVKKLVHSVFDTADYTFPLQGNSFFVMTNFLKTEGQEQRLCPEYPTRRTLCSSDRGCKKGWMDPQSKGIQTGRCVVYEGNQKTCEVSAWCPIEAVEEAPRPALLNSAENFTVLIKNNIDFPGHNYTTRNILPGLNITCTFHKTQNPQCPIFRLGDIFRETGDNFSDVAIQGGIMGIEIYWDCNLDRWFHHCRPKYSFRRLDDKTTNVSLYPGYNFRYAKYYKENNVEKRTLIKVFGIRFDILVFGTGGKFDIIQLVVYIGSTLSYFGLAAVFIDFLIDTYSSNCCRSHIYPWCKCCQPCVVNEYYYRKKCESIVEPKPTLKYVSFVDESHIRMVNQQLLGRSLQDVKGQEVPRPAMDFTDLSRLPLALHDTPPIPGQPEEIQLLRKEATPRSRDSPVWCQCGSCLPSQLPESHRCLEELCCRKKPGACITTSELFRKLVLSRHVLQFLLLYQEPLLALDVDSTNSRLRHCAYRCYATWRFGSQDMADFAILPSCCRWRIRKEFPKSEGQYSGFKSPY
How it was run: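 Intracellular Ca2+ tracked with a quenched Ca2+-sensitive fluorescent dye kit (excitation 488 nm, emission 510-560 nm) in 1321N1 cells, before and after agonist addition in presence of antagonist. Effects expressed as % control and IC50.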

P2X7 = target: T2, P2X7 (Homo sapiens, UniProt Q99572); assay: THP-1 YoPro uptake assay (BzATP-stimulated Yo-Pro-1 uptake); format: cell-based; details: Table F-10, THP-1 cells, read-out: mean pIC50 values for P2X7 antagonism (converted)
T2 construct: endogenous in cells; host or cells: THP-1 human monocytic cell line
T2 sequence (Q99572 1-595): T1 sequence (Q99572 1-595)
Protocol: The human monocytic cell line THP-1 was grown as a suspension culture in RPMI medium supplemented with 10% fetal bovine serum, penicillin/streptomycin (50 units/mL), 2 mM L-glutamine, and 20 μM 2-mercaptoethanol. Cells were maintained at a density below 0.5 million per mL. On the day of the assay, cells were washed twice with assay buffer, and then resuspended at 2 million per mL in assay buffer containing 2 μM Yo-Pro-1 (Invitrogen). The assay buffer contained (in mM): 280 sucrose, 5 KCl, 10 glucose, 10 HEPES, 5 N-methyl-D-glucamine. The cells were added at 200 k/well into poly-D-lysine-coated black-walled 96-well plates (Biocoat, Becton-Dickinson). Test compounds were dissolved in DMSO, and then added at the test concentration to each well of the 96-well plate. Concentration dependence of block was determined by exposing each well of cells in duplicate rows of a 96-well plate to a serial dilution of test compound. The concentration series usually started at 10 μM with a three-fold decrement in concentration. The final DMSO concentration seen by the cells was less than 0.5%. Cells were incubated with test compounds for 30 minutes at 37° C. A background reading was taken using a Gemini SpectraMax with 490 nm excitation and 530 nm emission. […] After incubation for 60 minutes at 37° C., an endpoint read was taken in the SpectraMax plate reader. The amount of block of the response was determined by comparing the fluorescence intensity in each well to the average of control wells on each plate. The control wells contained either a known antagonist of P2X7 (positive controls) or a concentration of DMSO equal to that in the test wells. Data were analyzed using a nonlinear regression program (Origin, OriginLab, MA). Results are reported as the −log of the IC50 (pIC50).

Row | SMILES | IC50 (hP2X7) [nM] | melting point [°C] | IC50 (P2X7) [nM]
1 | O=C(NCC(c1cnc(C(F)(F)F)nc1)N1CCC(F)(F)CC1)c1cccc2ncccc12 (single isomer, unassigned) [Compound 46] | 27.5 | 217.7 | –
2 | O=C(NCC(c1ccc(Cl)nc1)N1CCC(F)(F)CC1)c1cccc2ncccc12 (centres unmarked) [Compound 7] | 25.1 | 187.3 | –
3 | O=C(NCC(c1ccc(C(F)(F)F)nc1)N1CCNCC1)c1cccc2ncccc12 (centres unmarked) [Compound 8] | > 10000 | 198 | –
4 | O=C(NCC(c1ccc(C(F)(F)F)nc1)N1CCC(O)(c2ccc(Cl)cc2)CC1)c1cccc2ncccc12 (centres unmarked) [Compound 29] | > 10000 | 155 to 162.2 | –
5 | NC(=O)C1CCN(C(CNC(=O)c2cccc3ncccc23)c2ccc(C(F)(F)F)nc2)CC1 (centres unmarked) [Compound 34] | > 10000 | 253.7 to 254.3 | –
6 | O=C(NCC(c1cnc(C(F)(F)F)nc1)N1CCCCC1)c1cccc2ncccc12 (centres unmarked) [Compound 35] | 21.4 | 183.6 | –
7 | O=C(NCC(c1cnc(C(F)(F)F)nc1)N1CCC(F)(F)CC1)c1cccc2nc(NCCO)ccc12 (centres unmarked) [Compound 39] | 33.9 | 125.3 | –
8 | O=C(NCC(c1cnc(C(F)(F)F)nc1)N1CCC(F)(F)CC1)c1cccc2nc(O)ccc12 (centres unmarked) [Compound 77] | 224 | 206.9 | –
9 | O=C(NCC(c1cnc(C(F)(F)F)nc1)N1CCC(F)(F)CC1)c1cccc2nc(N3CCNCC3)ccc12 (centres unmarked) [Compound 78] | 25.7 | 202.9 | –
10 | Cc1ncc(C(CNC(=O)c2cccc3nc(N4CCOCC4)ccc23)N2CCC(F)(F)CC2)cn1 (centres unmarked) [Compound 96] | 47.9 | 160 | –
11 | O=C(NCC(c1cnc(C(F)(F)F)nc1)N1CCOCC1)c1cccc2nc(N3CCNCC3)ccc12 (centres unmarked) [Compound 102] | 72.4 | 234.3 | –
12 | CC(C)(C)OC(=O)N1CCN(c2ccc3c(C(=O)NCC(c4cnc(C(F)(F)F)nc4)N4CCCC(F)(F)C4)cccc3n2)CC1 (centres unmarked) [Compound 106] | 138 | 159.7 | –
13 | CC(C)N1CCN(c2ccc3c(C(=O)NCC(c4cnc(C(F)(F)F)nc4)N4CCC(F)(F)CC4)cccc3n2)CC1 (centres unmarked) [Compound 134] | – | 236.3 | –
14 | CC1CN(c2ccc3c(C(=O)NCC(c4cnc(C(F)(F)F)nc4)N4CCC(F)(F)CC4)cccc3n2)CC(C)O1 (centres unmarked) [Compound 140] | 91.2 | 191.5 | –
15 | NCC1CCN(c2ccc3c(C(=O)NCC(c4cnc(C(F)(F)F)nc4)N4CCC(F)(F)CC4)c(Cl)ccc3n2)CC1 (centres unmarked) [Compound 528] | – | – | 4.57
16 | O=C(NCC(c1cnc(C(F)(F)F)nc1)N1CCC(F)(F)CC1)c1c(Cl)ccc2nc(N3CCC4(CCCCN4)C3)ccc12 (centres unmarked) [Compound 529] | – | – | 5.62
17 | O=C(NCC(c1cnc(C(F)(F)F)nc1)N1CCC(F)(F)CC1)c1c(Cl)ccc2nc(N3C[C@@H]4C[C@H]3CO4)ccc12 (some centres unmarked) [Compound 530] | – | – | 2.63
18 | O=C(NCC(c1cnc(C(F)(F)F)nc1)N1CCC(F)(F)CC1)c1c(Cl)ccc2nc(N3CCC4(CCCN4)C3)ccc12 (centres unmarked) [Compound 531] | – | – | 3.02
19 | NCCNc1ccc2c(C(=O)NCC(c3cnc(C(F)(F)F)nc3)N3CCCCC3)c(Cl)ccc2n1 (centres unmarked) [Compound 545] | – | – | 1.45
20 | O=C(NCC(c1cnc(C(F)(F)F)nc1)N1CCCCC1)c1c(Cl)ccc2nc(N3CCC(O)CC3)ccc12 (centres unmarked) [Compound 546] | – | – | 4.79
21 | O=C(NCC(c1cnc(C(F)(F)F)nc1)N1CCCCC1)c1c(Cl)ccc2nc(NCCO)ccc12 (centres unmarked) [Compound 547] | – | – | 3.47
22 | O=C(NCC(c1cnc(C(F)(F)F)nc1)N1CCCCC1)c1c(Cl)ccc2nc(N3CCOCC3)ccc12 (centres unmarked) [Compound 548] | – | – | 1.91

Row | SMILES | IC50 (hP2X7) [nM] | melting point [°C] | IC50 (P2X7) [nM]
23 | O=C(NCC(c1cnc(C(F)(F)F)nc1)N1CCCCC1)c1c(Cl)ccc2nc(N3CCNCC3)ccc12 (centres unmarked) [Compound 549] | – | – | 3.39
24 | O=C(NCC(c1cnc(C(F)(F)F)nc1)N1CCCCC1)c1c(Cl)ccc2nc(NCC(O)CO)ccc12 (centres unmarked) [Compound 550] | – | – | 2.34
25 | CS(=O)(=O)N[C@H]1CCN(c2ccc3c(C(=O)NCC(c4cnc(C(F)(F)F)nc4)N4CCOCC4)c(Cl)ccc3n2)C1 (some centres unmarked) [Compound 551] | – | – | 14.8
26 | CS(=O)(=O)N[C@@H]1CCN(c2ccc3c(C(=O)NCC(c4cnc(C(F)(F)F)nc4)N4CCOCC4)c(Cl)ccc3n2)C1 (some centres unmarked) [Compound 552] | – | – | 17.8
27 | CS(=O)(=O)NCCNc1ccc2c(C(=O)NCC(c3cnc(C(F)(F)F)nc3)N3CCOCC3)c(Cl)ccc2n1 (centres unmarked) [Compound 553] | – | – | 17.4
28 | O=C(NCC(c1cnc(C(F)(F)F)nc1)N1CCOCC1)c1c(Cl)ccc2nc(NC3CCOCC3)ccc12 (centres unmarked) [Compound 554] | – | – | 12.6
29 | CC(=O)NC1CC2CCC(C1)N2c1ccc2c(C(=O)NCC(c3cnc(C(F)(F)F)nc3)N3CCOCC3)c(Cl)ccc2n1 (centres unmarked) [Compound 555] | – | – | 16.2
30 | CN[C@H]1CCN(c2ccc3c(C(=O)NCC(c4cnc(C(F)(F)F)nc4)N4CCOCC4)c(Cl)ccc3n2)C1 (some centres unmarked) [Compound 556] | – | – | 1.15
31 | NCCNc1ccc2c(C(=O)NCC(c3cnc(C(F)(F)F)nc3)N3CCOCC3)c(Cl)ccc2n1 (centres unmarked) [Compound 557] | – | – | 1.12
32 | O=C(NCC(c1cnc(C(F)(F)F)nc1)N1CCOCC1)c1c(Cl)ccc2nc(N3CC4CNCC4C3)ccc12 (centres unmarked) [Compound 558] | – | – | 2.51
33 | O=C(NCC(c1cnc(C(F)(F)F)nc1)N1CCOCC1)c1c(Cl)ccc2nc(N3CCC4CNCC43)ccc12 (centres unmarked) [Compound 559] | – | – | 3.63
34 | O=C(NCC(c1cnc(C(F)(F)F)nc1)N1CCOCC1)c1c(Cl)ccc2nc(N3CC4CCNC4C3)ccc12 (centres unmarked) [Compound 560] | – | – | 4.9
35 | N[C@@H]1CCN(c2ccc3c(C(=O)NCC(c4cnc(C(F)(F)F)nc4)N4CCOCC4)c(Cl)ccc3n2)C1 (some centres unmarked) [Compound 561] | – | – | 1.35
36 | CN[C@@H]1CCN(c2ccc3c(C(=O)NCC(c4cnc(C(F)(F)F)nc4)N4CCOCC4)c(Cl)ccc3n2)C1 (some centres unmarked) [Compound 562] | – | – | 4.9
37 | N[C@H]1CCN(c2ccc3c(C(=O)NCC(c4cnc(C(F)(F)F)nc4)N4CCOCC4)c(Cl)ccc3n2)C1 (some centres unmarked) [Compound 563] | – | – | 0.851
38 | O=C(NCC(c1cnc(C(F)(F)F)nc1)N1CCOCC1)c1c(Cl)ccc2nc(N3C[C@@H]4CCCN[C@@H]4C3)ccc12 (some centres unmarked) [Compound 564] | – | – | 7.41
39 | O=C(NCC(c1cnc(C(F)(F)F)nc1)N1CCOCC1)c1c(Cl)ccc2nc(N3CC4CNC4C3)ccc12 (centres unmarked) [Compound 565] | – | – | 2.57
40 | CSc1ncc(C(CNC(=O)c2c(Cl)ccc3ncccc23)N2CCC(F)(F)CC2)cn1 (centres unmarked) [Compound 582, 6-chloro-quinoline-5-carboxylic acid [2-(4,4-difluoro-piperidin-1-yl)-2-(2-methylsulfanyl-pyrimidin-5-yl)-ethyl]-amide] | – | – | 10.7
41 | O=C(NCC(c1cnc(C(F)(F)F)nc1)N1CCC(F)(F)CC1)c1c(Cl)ccc2nc(O)ccc12 (centres unmarked) [Compound 593] | – | – | 112
42 | Nc1ccc2c(C(=O)NCC(c3cnc(C(F)(F)F)nc3)N3CCC(F)(F)CC3)c(Cl)ccc2n1 (centres unmarked) [Compound 596] | – | – | 3.55
43 | O=C(NCC(c1cnc(C(F)(F)F)nc1)N1CCOCC1)c1c(F)ccc2ncccc12 (centres unmarked) [Compound 609] | – | – | 33.1
